Measured values taken from patent US9206448B2, “Extraction solvents derived from oil for alcohol removal in extractive fermentation” (Butamax Advanced Biofuels LLC, priority 2010, dated 2015).
“And” between values parts separate entries of the source, which are not always exact repeats. Equal entries are not always repeated. Blank lines part the entries; values can stand above or below the compound they belong to.

What was measured:
strain NGCI-065 = test: Extractive fermentation, examples GLNOR635A-640A
Experimental: (§1) Fermentation conditions: 30% pO2; temperature: 30° C.; pH 5.5 (unless noted otherwise); initial batch glucose: 20 g/L, maintained during production.
(§2) Both HPLC and GC analyses were used for the quantization of isobutanol in the aqueous phase and solvent phase respectively. Isobutanol in the aqueous was measured after filtration through a 0.2 um nylon filter with a HPLC (Agilent 1100, Agilent, Santa Clara, Calif.) under the following conditions: • Column: Bio-Rad, Aminex HPX-87H, No. 125-0143 • Mobile Phase: […] • Injection Volume: 10 uL • Flow Rate: 0.6 mL/min • Run Time: 22.5 minutes • Column Temperature: 65° C. • Detectors: Refractive Index • Detector Temperature: 40° C. • UV Detection: 210 nm, 4 nm bandwidth, Ref 360 nm, 100 nm bandwidth.
(§3) The solvent phase was measured with a GC (HP6890, Agilent, Santa Clara, Calif.) under the following conditions: • Column: J&W Scientific DB Waxter (50 m×0.32 mm ID, 1 um film) • Gas Carrier: Helium 4 mL/min • Injection Volume: 2 uL • Make Up Flow Rate: 40 mL/min • Run Time: 29 minutes • Oven Temperature: 40° C. for 5 min, 40° C. to 230° C. @10° C./min., 5 min 230° C. • Injector Split: 1:5 @ 250° C. • Flame Ionization Detection: 250° C.
(§4) The extractants were added to the fermentor broth at time zero exposing the culture to the solvent for the duration of the fermentation. Isobutanol concentrations in both the aqueous phase and organic phase were measured to calculate the partitioning coefficient of the extraction solvent. Glucose utilization was used to determine the biocompatability of the microorganism to the extractant.
(§5) The fermentations were carried out as described with the strain NGCI-065. The inoculum was prepared in two stages and incubated at 30° C. and 250 rpm in an incubator shaker (Innova 4200, New Brunswick Scientific, Edison, N.J.). The first stage or pre-seed was inoculated from a frozen glycerol seed stock, two vials were placed into a 250 mL flask with 30 mL of filter sterilized pre-seed media (Table 4) and grown for 24 hours to an OD of approximately 2. 15 mL of the pre-seed was then transferred to a 2 L flask with 270 mL of filter sterilized seed media (Table 5) for the second stage which was incubated for 24 hours. 30 mL of filter sterilized 10× YEP and 300 mL of filter sterilized 90-95% oleyl alcohol was then added and incubated for an additional 24 hours to a final OD of approximately 5-10 in the aqueous phase of the seed culture. For examples GLNOR639 and GLNOR640, the pH was 4.5.
Fermentation vessels (Applikon AD1010 Bioreactor, Applikon Biotechnology, Dover, N.J.) were sterilized with diH2O for 30 minutes (Amsco Renaissance 3033 Revas Steam Sterilizer, Steris Corporation, Mentor, Ohio). Once the vessels were finished sterilization in the autoclave and cooled to 30° C., the sterile diH2O was removed and the filter sterilized fermentation media was added to a volume of 280 mL. 70 mL of the aqueous phase from the second stage seed flasks was added to the fermentation vessel for a final aqueous volume of 350 mL. […] The fermentation was sampled approximately every 8 hours from the time of inoculation to monitor glucose concentration, which was maintained between 5-20 g/L through the addition of 50% w/w glucose solution, and analyzed for isobutanol accumulation in both the aqueous phase and the extractant phase. […]

strain NGCI-070 = test: Extractive fermentation, examples GLNOR661A-666A, 690A-695A, 721A-726A, 749A-754A; settings: pH 5.5, fermentation broth
Experimental: as §1, §2, §3, §4, §5
Fermentation vessels (Applikon AD1010 Bioreactor, Applikon Biotechnology, Dover, N.J.) were sterilized with diH2O for 30 minutes (Amsco Renaissance 3033 Revas Steam Sterilizer, Steris Corporation, Mentor, Ohio). Once the vessels were finished sterilization in the autoclave and cooled to 30° C., the sterile diH2O was removed and the filter sterilized fermentation media was added to a volume of 280 mL. 70 mL of the aqueous phase from the second stage seed flasks was added to the fermentation vessel for a final aqueous volume of 350 mL. Immediately after inoculation, 100 mL of 10× YEP media supplementation was added as well as 450 mL of the respective extraction solvent for a final solvent to broth ratio of approximately 1:1. Fermentation set-point conditions were temperature 30° C., pO2 30%, pH 5.5 for GLNOR635A-638A and pH 4.5 for GLNOR639A-640A. The fermentation was sampled approximately every 8 hours from the time of inoculation to monitor glucose concentration, which was maintained between 5-20 g/L through the addition of 50% w/w glucose solution, and analyzed for isobutanol accumulation in both the aqueous phase and the extractant phase. Enough sample volume was taken at each time point to obtain a sample from both of the phases, then those samples were centrifuged in order to ensure a clean cut of each.
The examples in this set were performed the same as in the previous examples GLNOR635A-640A with the exception of the strain, pH, and supplement addition at time zero.

[1] = test system: Saccharomyces butanologen NGCI-070; test: Shake flask incubation with fermentation broth, glucose consumption followed over time; assay type: cell-based, Saccharomyces cerevisiae; settings: 3 parts broth to 1 part extractant
Experimental: Fatty amide/fatty acid aqueous ammonia preparation (1), and a preparation (1 a) constituted by preparation (1) mixed 1:1 with pure corn oil fatty acid (equivalent to 1:2 fatty amide:fatty acid) were incubated in shake flasks with fermentation broth containing the Saccharomyces butanologen NGCI-070 at a ratio of 3 parts broth to 1 part amide/acid mixture. […] Starting at a glucose concentration of 8.35 g/L, the shake flasks were then incubated for 25 h on an incubator shaker and the consumption of glucose followed as a function of time.

- Kp (solvent partition coefficient) (strain NGCI-065; pH 4.5, fermentation broth, listed as GLNOR639): 2.54
- Kp (solvent partition coefficient) (strain NGCI-065; pH 4.5, fermentation broth, listed as GLNOR640): 2.51
- Kp (solvent partition coefficient) (strain NGCI-065; pH 5.5, fermentation broth, listed as GLNOR637): 2.64
- Kp (solvent partition coefficient) (strain NGCI-065; pH 5.5, fermentation broth, listed as GLNOR638): 2.56
- Kp (solvent partition coefficient) (strain NGCI-070; listed as GLNOR665): 2.61
- Kp (solvent partition coefficient) (strain NGCI-070; listed as GLNOR666): 2.51
SMILES: CCCCCCCC/C=C\CCCCCCCC(=O)O [Oleic Acid]

SMILES: CCCCCCC(CO)CCCC (stereo not drawn) [Isofol ™ 12, 2-butyl-1-octanol]
- Kp (solvent partition coefficient) (strain NGCI-070; listed as GLNOR749): 4.05
- Kp (solvent partition coefficient) (strain NGCI-070; listed as GLNOR750): 4.22

SMILES: CCCCCCCC/C=C\CCCCCCCCO [Oleyl Alcohol]
- Kp (solvent partition coefficient) (strain NGCI-065; pH 5.5, fermentation broth): 3.38
- Kp (solvent partition coefficient) (strain NGCI-070; listed as GLNOR661): 3.35
- Kp (solvent partition coefficient) (strain NGCI-070; listed as GLNOR690): 3.74
- Kp (solvent partition coefficient) (strain NGCI-070; listed as GLNOR691): 3.77
- Glucose conc. ([1]; 18 hrs): 4.26 g/L and 4.46 g/L
- Glucose conc. ([1]; 25 hrs): 0 g/L
- Glucose conc. ([1]; Time = 0): 8.35 g/L
